According to PubChem BioAssay AID330 (DTP/NCI, 2004):
Where “and” joins values, the source holds several entries; their conditions need not be identical. Identical values can stand only once. Inconclusive results and toxic doses are left out.

System: P388 leukemia ip, CD2F1 mice, survival T/C
Experiment: NCI In Vivo Anticancer Drug Screen. Data for tumor model P388 Leukemia (intraperitoneal) in CD2F1 (CDF1) mice
Conditions: endpoint: median survival time, higher = longer survival
How it was run: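 Mice carrying the transplanted tumor received test compound or vehicle. Survival was recorded in each group, and the value is the treated-group measurement divided by that of the vehicle-treated control group.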

[1] = dose: 100.0 mg/kg/injection, schedule: Q04DX003 (ip), vehicle: saline
[2] = dose: 200.0 mg/kg/injection, schedule: Q04DX003 (ip), vehicle: saline
[3] = dose: 400.0 mg/kg/injection, schedule: Q04DX003 (ip), vehicle: saline
[4] = dose: 50.0 mg/kg/injection, schedule: Q01DX001 (ip), vehicle: Klucel (hydroxypropylcellulose) (HPC)
[5] = dose: 100.0 mg/kg/injection, schedule: Q01DX001 (ip), vehicle: Klucel (hydroxypropylcellulose) (HPC)
[6] = dose: 50.0 mg/kg/injection, schedule: Q01DX005 (ip), vehicle: Klucel (hydroxypropylcellulose) (HPC)
[7] = dose: 100.0 mg/kg/injection, schedule: Q01DX005 (ip), vehicle: Klucel (hydroxypropylcellulose) (HPC)
[8] = dose: 200.0 mg/kg/injection, schedule: Q01DX005 (ip), vehicle: Klucel (hydroxypropylcellulose) (HPC)
[9] = dose: 50.0 mg/kg/injection, schedule: Q01DX005 (ip), vehicle: saline with Tween-80
[10] = dose: 100.0 mg/kg/injection, schedule: Q01DX005 (ip), vehicle: saline with Tween-80
[11] = dose: 200.0 mg/kg/injection, schedule: Q01DX001 (ip), vehicle: Klucel (hydroxypropylcellulose) (HPC)
[12] = dose: 10.0 mg/kg/injection, schedule: Q01DX009 (ip), vehicle: saline with Tween-80
[13] = dose: 20.0 mg/kg/injection, schedule: Q01DX009 (ip), vehicle: saline with Tween-80
[14] = dose: 40.0 mg/kg/injection, schedule: Q01DX009 (ip), vehicle: saline with Tween-80
[15] = dose: 50.0 mg/kg/injection, schedule: Q01DX009 (ip), vehicle: saline with Tween-80
[16] = dose: 100.0 mg/kg/injection, schedule: Q04DX003 (ip), vehicle: saline with Tween-80
[17] = dose: 200.0 mg/kg/injection, schedule: Q04DX003 (ip), vehicle: saline with Tween-80

## CCCCCCCCCCSCC
dose: 100.0 mg/kg/injection, schedule: Q01DX009 (ip), vehicle: saline
  T/C: 95 % of control
[1]
  T/C: 100 % of control
dose: 200.0 mg/kg/injection, schedule: Q01DX009 (ip), vehicle: saline
  T/C: 100 % of control
[2]
  T/C: 91 % of control
dose: 400.0 mg/kg/injection, schedule: Q01DX009 (ip), vehicle: saline
  T/C: 104 % of control
[3]
  T/C: 100 % of control

## O=c1cc(-c2ccc3ccccc3n2)oc2ccc(Cl)cc12
dose: 10.0 mg/kg/injection, schedule: Q01DX009 (ip), vehicle: saline
  T/C: 107 % of control
dose: 20.0 mg/kg/injection, schedule: Q01DX009 (ip), vehicle: saline
  T/C: 93 % of control
dose: 40.0 mg/kg/injection, schedule: Q01DX009 (ip), vehicle: saline
  T/C: 89 % of control

## C[Si](C)(C)Cn1cc(F)c(=O)n(C[Si](C)(C)C)c1=O
dose: 60.0 mg/kg/injection, schedule: Q01DX005 (ip), vehicle: Klucel (hydroxypropylcellulose) (HPC)
  T/C: 103 % of control
dose: 120.0 mg/kg/injection, schedule: Q01DX005 (ip), vehicle: Klucel (hydroxypropylcellulose) (HPC)
  T/C: 103 % of control
dose: 240.0 mg/kg/injection, schedule: Q01DX005 (ip), vehicle: Klucel (hydroxypropylcellulose) (HPC)
  T/C: 97 % of control

## O=[N+]([O-])c1ccc(N/N=C\c2c(Cl)[nH]c3ccccc23)cc1
dose: 100.0 mg/kg/injection, schedule: Q04DX002 (ip), vehicle: saline + alcohol
  T/C: 86 % of control
dose: 200.0 mg/kg/injection, schedule: Q04DX002 (ip), vehicle: saline + alcohol
  T/C: 98 % of control
dose: 400.0 mg/kg/injection, schedule: Q04DX002 (ip), vehicle: saline + alcohol
  T/C: 104 % of control

## CC12Cc3cn[nH]c3CC1CCC1C2CCC2(C)C1CCC2(C)O (configuration not stated)
dose: 100.0 mg/kg/injection, schedule: Q04DX002 (ip), vehicle: saline
  T/C: 98 % of control
dose: 200.0 mg/kg/injection, schedule: Q04DX002 (ip), vehicle: saline
  T/C: 100 % of control
dose: 400.0 mg/kg/injection, schedule: Q04DX002 (ip), vehicle: saline
  T/C: 97 % of control

## O=C1CCCC2OC3CCCC(=O)C3C(c3ccccc3)C12 (configuration not stated)
dose: 25.0 mg/kg/injection, schedule: Q01DX001 (ip), vehicle: Klucel (hydroxypropylcellulose) (HPC)
  T/C: 96 % of control
[4]
  T/C: 100 % of control
[5]
  T/C: 90 % of control

## CCOC(=O)N[N+]12CCN(CC1)CC2
[1]
  T/C: 100 % of control
[2]
  T/C: 102 % of control
[3]
  T/C: 102 % of control

## CC(C)(O)CCC(=O)[C@](C)(O)[C@H]1[C@H](O)C[C@@]2(C)[C@@H]3CC=C4[C@@H](C[C@@H](O)[C@@H](O)C4(C)C)[C@]3(C)C(=O)C[C@]12C
dose: 1.25 mg/kg/injection, schedule: Q01DX005 (ip), vehicle: saline with Tween-80
  T/C: 100 % of control
dose: 2.5 mg/kg/injection, schedule: Q01DX005 (ip), vehicle: saline with Tween-80
  T/C: 97 % of control
dose: 5.0 mg/kg/injection, schedule: Q01DX005 (ip), vehicle: saline with Tween-80
  T/C: 95 % of control
dose: 10.0 mg/kg/injection, schedule: Q01DX005 (ip), vehicle: saline with Tween-80
  T/C: 104 % of control

## Cc1ccc(NC(=O)NCc2ccco2)cc1[N+](=O)[O-]
[6]
  T/C: 96 % of control
[7]
  T/C: 96 % of control
[8]
  T/C: 89 % of control

## CN1CC2OC2(c2ccccc2)C(c2ccccc2)C1 (configuration not stated)
[9]
  T/C: 102 % of control
[10]
  T/C: 102 % of control

## CCCCN=Cc1c(O)c(O)c(C(C)C)c2cc(C)c(-c3c(C)cc4c(C(C)C)c(O)c(O)c(C=NCCCC)c4c3O)c(O)c12
[6]
  T/C: 99 % of control
[7]
  T/C: 107 % of control
[8]
  T/C: 114 % of control

## BrCC1CN=C(c2ccccc2)O1 (configuration not stated)
dose: 60.0 mg/kg/injection, schedule: Q01DX005 (ip), vehicle: saline
  T/C: 104 % of control
dose: 120.0 mg/kg/injection, schedule: Q01DX005 (ip), vehicle: saline
  T/C: 101 % of control
dose: 240.0 mg/kg/injection, schedule: Q01DX005 (ip), vehicle: saline
  T/C: 101 % of control

## O=C1CSC(=S)N1c1ccco1
dose: 100.0 mg/kg/injection, schedule: Q01DX009 (ip), vehicle: saline with Tween-80
  T/C: 100 % of control
dose: 200.0 mg/kg/injection, schedule: Q01DX009 (ip), vehicle: saline with Tween-80
  T/C: 100 % of control

## NC(=S)N/N=C/c1c(-c2ccc(Cl)cc2)nc2sccn12
[5]
  T/C: 96 % of control
[11]
  T/C: 95 % of control
dose: 400.0 mg/kg/injection, schedule: Q01DX001 (ip), vehicle: Klucel (hydroxypropylcellulose) (HPC)
  T/C: 96 % of control

## CC/C(C)=N\Nc1cc(C)[nH]c(=O)c1
dose: 100.0 mg/kg/injection, schedule: Q01DX001 (ip), vehicle: saline with Tween-80
  T/C: 105 % of control
dose: 200.0 mg/kg/injection, schedule: Q01DX001 (ip), vehicle: saline with Tween-80
  T/C: 100 % of control
dose: 400.0 mg/kg/injection, schedule: Q01DX001 (ip), vehicle: saline with Tween-80
  T/C: 91 % of control

## CCOC(=O)N1C=CC(C2C=CN(C(=O)OCC)C=C2)C=C1
[12]
  T/C: 111 % of control
[13]
  T/C: 96 % of control
[14]
  T/C: 105 % of control

## Clc1cc(Cl)c(OCC#CI)c(Cl)c1Cl
[15]
  T/C: 86 % of control
[16]
  T/C: 109 % of control
[17]
  T/C: 100 % of control

## O=c1[nH]c(=O)c2cccnc2[nH]1
dose: 6.25 mg/kg/injection, schedule: Q01DX009 (ip), vehicle: Klucel (hydroxypropylcellulose) (HPC)
  T/C: 93 % of control
dose: 12.5 mg/kg/injection, schedule: Q01DX009 (ip), vehicle: Klucel (hydroxypropylcellulose) (HPC)
  T/C: 99 % of control
dose: 25.0 mg/kg/injection, schedule: Q01DX009 (ip), vehicle: Klucel (hydroxypropylcellulose) (HPC)
  T/C: 121 % of control and 93 % of control
dose: 50.0 mg/kg/injection, schedule: Q01DX009 (ip), vehicle: Klucel (hydroxypropylcellulose) (HPC)
  T/C: 118 % of control
dose: 100.0 mg/kg/injection, schedule: Q01DX009 (ip), vehicle: Klucel (hydroxypropylcellulose) (HPC)
  T/C: 99 % of control

## O/N=c1/ccn(O)c2ccccc12
dose: 0.78 mg/kg/injection, schedule: Q01DX009 (ip), vehicle: saline
  T/C: 161 % of control
dose: 1.56 mg/kg/injection, schedule: Q01DX009 (ip), vehicle: saline
  T/C: 171 % of control
dose: 3.12 mg/kg/injection, schedule: Q01DX009 (ip), vehicle: saline
  T/C: 204 % of control

## O=C(CCl)c1ccc2c(c1)N(C(=O)COc1ccccc1)c1ccccc1S2
[4]
  T/C: 89 % of control
[5]
  T/C: 91 % of control
[11]
  T/C: 96 % of control

## CCn1c2ccccc2c2cc(N=Nc3cc[n+]([O-])c4c(O)cccc34)ccc21
dose: 5.0 mg/kg/injection, schedule: Q01DX009 (ip), vehicle: saline with Tween-80
  T/C: 110 % of control
[12]
  T/C: 102 % of control
[13]
  T/C: 106 % of control
[14]
  T/C: 107 % of control
[15]
  T/C: 86 % of control

## Cc1c2cc[n+](C[n+]3ccc4c(C)c5[nH]c6ccccc6c5c(C)c4c3)cc2c(C)c2c1[nH]c1ccccc12
dose: 12.5 mg/kg/injection, schedule: Q04DX002 (ip), vehicle: DMSO
  T/C: 107 % of control
dose: 25.0 mg/kg/injection, schedule: Q04DX002 (ip), vehicle: DMSO
  T/C: 111 % of control
dose: 50.0 mg/kg/injection, schedule: Q04DX002 (ip), vehicle: DMSO
  T/C: 115 % of control
dose: 100.0 mg/kg/injection, schedule: Q04DX002 (ip), vehicle: DMSO
  T/C: 121 % of control

## CCCCCC(=O)C(C)(c1nc2nnc(N)n2[nH]c1=O)c1nc2nnc(N)n2[nH]c1=O
[9]
  T/C: 93 % of control
[10]
  T/C: 93 % of control
dose: 200.0 mg/kg/injection, schedule: Q01DX005 (ip), vehicle: saline with Tween-80
  T/C: 94 % of control

## O=C(c1ccccc1)C(N=Nc1ccccc1)(c1ccccc1)c1ccccc1
dose: 60.0 mg/kg/injection, schedule: Q01DX005 (ip), vehicle: saline with Tween-80
  T/C: 101 % of control
dose: 120.0 mg/kg/injection, schedule: Q01DX005 (ip), vehicle: saline with Tween-80
  T/C: 118 % of control
dose: 240.0 mg/kg/injection, schedule: Q01DX005 (ip), vehicle: saline with Tween-80
  T/C: 100 % of control

## Cc1cc(NC(=O)Nc2ccc(Cl)cc2)no1
[16]
  T/C: 100 % of control
[17]
  T/C: 95 % of control
dose: 400.0 mg/kg/injection, schedule: Q04DX003 (ip), vehicle: saline with Tween-80
  T/C: 100 % of control
